# Columns and labels:
# tumor models = experiment: drug efficacy of PI3K pathway agents with modulation of glucose metabolism in murine tumor models; format: in vivo, mice
# KPC cells = experiment: signaling and proliferation of KPC cells with PI3K inhibitor and insulin; format: cell-based, Mouse
# Procedure: To test whether or not these spikes in insulin were stimulating PI3K signaling in the context of PI3K inhibition, KPC cells were treated in vitro with the PI3K inhibitors in the presence or absence of 10 ng/ml insulin, the level observed in the mice within 15-30 min after drug administration (FIG. 1D).
# For signaling assays, cells were washed 1× in PBS and placed in starvation media (−FBS) for 6-18 hours depending upon cell line and treated 1 hour prior to harvesting with PI3K inhibitors as indicated alone or in combination with insulin 10 minutes prior to harvesting. Three-dimensional culture and dose response experiments of patient derived organoids were run as previously described. In brief, ˜1000 cells were plated in 10 ul of 1:1 matrigel to culture media in 96 well angiogenesis plates and allowed to solidify for 30 min at 37 degrees before 70 ul of culture media was added. Organoids were then treated in triplicate in a log scale dose response and CellTiter-Glo assay (Promega) was run at 96 hours to determine the IC50 values. Knockdown of insulin receptor was achieved using a doxycycline inducible shRNA strategy. For generation of miR-E shRNAs, 97-mer oligonucleotides were purchased (IDT Ultramers) coding for predicted shRNAs using an siRNA predictional tool Splash RNA (see website at splashrna.mskcc.org/).
# [1] = system: MDA-MB-468 breast cancer cells; experiment: proliferation in minimal growth media with BKM120 and insulin; format: cell-based, Human; settings: insulin 10 ng/ml
# [2] = system: BT-549 breast cancer cells; experiment: as above; format: cell-based, Human; settings: insulin 10 ng/ml
# [3] = system: PC-3 prostate adenocarcinoma cells; experiment: as above; format: cell-based; settings: insulin 10 ng/ml
# [4] = system: HCT116 PTEN knockout (KO) cells; experiment: proliferation with PI3K inhibitors and insulin; format: cell-based, Human; settings: insulin 10 ng/ml in presence of PI3K inhibitors GDC-0032, BYL-719
# [5] = system: ES272 Pik3ca mutant breast cancer allograft; experiment: Pik3ca mutant breast allografts, ketogenic diet, BYL-719 and exogenous insulin; format: in vivo, mice; settings: 0.4 mU insulin 15 minutes after each dose of PI3K inhibitor
# Procedure: To further test whether the improved response to PI3K inhibitors while on a ketogenic diet is a consequence of lowering blood insulin levels, the inventors attempted to “rescue” the PI3K reactivation using exogenous insulin. A cohort of the mice bearing Pik3ca mutant breast allografts were treated with the combination of a ketogenic diet and BYL-719, and then given 0.4 mU of insulin 15 minutes after each dose of PI3K inhibitor (FIG. 4B).
# KPC allografted tumors = format: in vivo; settings: insulin added to ketogenic diet plus BYL-719
# [6] = system: syngeneic K8484 KPC allografted tumors; experiment: glucose/insulin feedback after single dose of BKM120 in mice with KPC allografts; format: in vivo; settings: pretreatment before a single treatment with BKM120; for insulin released in response to BKM120 (c-peptide): c-peptide after 3 hours; for growth signaling through mTORC1 in the tumor (pS6): tumors harvested at 90 minutes
# KPC K8484 tumors = experiment: KPC K8484 allografts treated with BYL-719 alone or combined: tumor response and survival; format: in vivo, mice
# KPC allografts = KPC allografts treated with BKM120 and OSI-906; format: in vivo, mice; settings: BKM120 combined with OSI-906, vs either drug alone
# [7] = system: MLL-AF9 driven Acute Myeloid Leukemia; experiment: syngeneic model of AML treated with BKM120 and ketogenic diet; format: in vivo, mice; settings: BKM120 with ketogenic diet started before or with BKM120
# Procedure: For AML studies, 10-12 weeks old male C57BL/6J mice were used for MLL-AF9 Ds-Red AML study (Approved protocol AC-AAAQ5405). For pre-treatment study with MLL-AF9 Ds-Red cells, keto and Keto/BKM group mice were given a ketogenic diet for 10 days prior to injection with MLL-AF9 Ds-Red cells (2×10^5 per mouse in 200 ul) via lateral tail vein. The day after iv injection, the mice were given 0.5% carboxymethyl cellulose (CMC) as vehicle control or BKM120 (37.5 mg/kg) by oral gavage for two weeks (5 out of 7 days). The mice were euthanized after two-week treatment to check the bone marrow for AML progress. The tumor progress was also monitored via IVIS spectrum machine.
# For co-current treatment studies with MLL-AF9 Ds-Red cells, the mice were injected with MLL-AF9 Ds-Red cells (2×10^5 per mouse in 200 ul) via lateral tail vein. The day after iv injection, the mice were given vehicle or BKM120 (37.5 mg/kg) by oral gavage for two weeks. The Keto or Keto/BKM group were changed to a ketogenic diet on the same day. The mice were euthanized after two-week treatment to check the bone marrow for AML progress.
# To check if Keto/BKM treatment affects the AML engraftment, Keto and Keto/BKM group mice were given a ketogenic diet for 10 days, then treated with vehicle or BKM120 by oral gavage for two weeks. […]
# AKT1/2/3 = settings: from Selleck Chem website; read-out: IC50 of primary target; cited from earlier work
# [8] = system: PIK3CA+MYC mutant murine breast tumor allografts, ES-278; experiment: ES-278 breast tumor allografts with or without keto diet; format: in vivo, mice; settings: combined with ketogenic diet
# Source text: For solid tumor studies, Nude (genotype) and C57/BL6 mice were purchased at 8 weeks of age from Jackson laboratories (Bar Harbor, ME).
# IGF1R/INSR = settings: from Selleck Chem website; read-out: IC50 of primary target; cited from earlier work
# SGLT-2 = SGLT-2 (Homo sapiens (Human), UniProt P31639); settings: read-out: IC50 of primary target; from Selleck Chem website; cited from earlier work
molecule,measurement,setting,value
CS(=O)(=O)N1CCN(Cc2cc3nc(-c4cccc5[nH]ncc45)nc(N4CCOCC4)c3s2)CC1 [Pictilisib],drug efficacy,tumor models,improved drug efficacy
insulin,"PI3K signaling (pAKT, pS6)",KPC cells; 10 ng/ml insulin in continued presence of PI3K inhibitors,partially rescue PI3K signaling
same,cellular proliferation,KPC cells; 10 ng/ml insulin with BKM120 (1 uM),partial recovery of cellular proliferation
same,growth (proliferation),[1],partially rescued
same,growth (proliferation),[2],partially rescued
same,growth (proliferation),[3],partially rescued
same,proliferation (percent confluence),[4],restore normal proliferation
same,therapeutic benefit of ketogenic diet plus BYL-719,[5],dramatically reduced the therapeutic benefit
same,tumor growth,KPC allografted tumors,rescued tumor growth
"Cc1ccc([C@@H]2O[C@H](CO)[C@@H](O)[C@H](O)[C@H]2O)cc1Cc1ccc(-c2ccc(F)cc2)s1 [Conagliflozin, Canagliflozin]",PI3K inhibitor-induced elevation in blood glucose (hyperglycemia),[6],decreased the resulting hyperglycemia
same,insulin released in response to BKM120 (c-peptide),[6],reduced the total insulin that was released
same,growth signaling through mTORC1 in the tumor (pS6),[6],reduced signaling through mTORC1 in the tumor
same,overall survival,"KPC K8484 tumors; added to treatment with BYL-719, vs BYL-719 alone",increases overall survival
Cc1c(CN2CCN(C(=O)[C@H](C)O)CC2)sc2c(N3CCOCC3)nc(-c3cnc(N)nc3)nc12 [Apitolisib],drug efficacy,tumor models,improved drug efficacy
Nc1cc(C(F)(F)F)c(-c2cc(N3CCOCC3)nc(N3CCOCC3)n2)cn1 [Buparlisib],growth of KPC allografts,KPC allografts,more effective response on the growth of KPC allografts than either drug alone
same,efficacy (survival),[7],significantly enhanced
same,drug efficacy,tumor models,improved drug efficacy
NC1(c2ccc(-c3nc4ccn5c(=O)[nH]nc5c4cc3-c3ccccc3)cc2)CCC1 [MK2206],IC50,AKT1/2/3,8 nM
C[C@]1(O)C[C@@H](c2nc(-c3ccc4ccc(-c5ccccc5)nc4c3)c3c(N)nccn32)C1 [Linsitinib],treatment efficacy (tumor volume),[8],significantly improved
same,IC50,IGF1R/INSR,35 nM
"CN(C)C(=N)NC(=N)N [metformin, Metformin]",PI3K inhibitor-induced elevation in blood glucose (hyperglycemia),[6],only minimal impact
same,insulin released in response to BKM120 (c-peptide),[6],only minimal impact
same,growth signaling through mTORC1 in the tumor (pS6),[6],only minimal impact
Cc1nc(-c2cn3c(n2)-c2ccc(-c4cnn(C(C)(C)C(N)=O)c4)cc2OCC3)n(C(C)C)n1 [Taselisib],treatment efficacy (tumor volume),[8],significantly improved
same,drug efficacy,tumor models,improved drug efficacy
"Cc1ccc([C@@H]2OC(CO)[C@@H](O)C(O)C2O)cc1Cc1ccc(-c2ccc(F)cc2)s1 (some centres unmarked) [Conagliflozin, Canagliflozin]",IC50,SGLT-2,2.2 nM
"COc1c(OCCCN2CCOCC2)ccc2c1N=C(NC(=O)c1cnc(N)nc1)N1CCN=C21 [Copanilisib, Copanlisib]",drug efficacy,tumor models,improved drug efficacy
"Cc1nc(NC(=O)N2CCC[C@H]2C(N)=O)sc1-c1ccnc(C(C)(C)C(F)(F)F)c1 [Apelisib, Alpelisib]",response of KPC allografts,"KPC K8484 tumors; BYL-719 combined with metformin, SGLT2i or ketogenic diet, concordant with ability to reduce serum insulin",enhanced response of KPC allografts
same,drug efficacy,tumor models,improved drug efficacy
